Broadly, the IC50 is the point on the concentration scale where inhibition reaches its midpoint.

Read-outs that look alike come from different tables or passages of the source.

For this experiment, the system named is P. falciparum K1 (strain resistant to chloroquine and pyrimethamine), erythrocytic stages. Put plainly: Plasmodium falciparum in vitro assay, [3H] hypoxanthine incorporation. It is filed as cell-based. Particulars: [3H] hypoxanthine incorporation, read-out: IC50 (nM) on K1. In a few lines:
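K1 strain parasites grown in human red cells, 2.5% haematocrit, 0.3% parasitaemia, 37 °C, 4% CO2/3% O2; compounds in seven serial doubling dilutions.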

[1] abbreviates: Plasmodium falciparum, K1, P. falciparum strain K1.

As to `COc1ccc(COCCN(C)C(=O)[C@H](Cc2ccccc2)N(Cc2ccc(N3CCN(C(C)=O)CC3)cc2)C(=O)C=Cc2ccc(C(F)(F)F)cc2)cc1F` [Example 184, (S)-N-[4-(4-Acetyl-piperazin-1-yl)-benzyl]-N-(1-{[2-(3-fluoro-4-methoxy-benzyloxy)-ethyl]-methyl-carbamoyl}-2-phenyl-ethyl)-3-(4-trifluoromethyl-phenyl)-acrylamide, formic acid], under setting [1], the IC50 was found to be 13 nM. On to `CC(=O)N1CCN(c2ccc(CN(C(=O)C=Cc3ccc(C(F)(F)F)cc3)[C@@H](Cc3ccccc3)C(=O)N(C)CCOCc3cccc(C#N)c3)cc2)CC1` [Example 185, (S)-N-[4-(4-Acetyl-piperazin-1-yl)-benzyl]-N-(1-{[2-(3-cyano-benzyloxy)-ethyl]-methyl-carbamoyl}-2-phenyl-ethyl)-3-(4-trifluoromethyl-phenyl)-acrylamide, formic acid], for which the IC50 under setting [1] came to 19 nM. On the same count and under the same terms, next, `CC(=O)N1CCN(c2ccc(CN(C(=O)C=Cc3ccc(C(F)(F)F)cc3)[C@@H](Cc3ccccc3)C(=O)N(C)CCOCc3cccc(OC(F)(F)F)c3)cc2)CC1` [Example 186, (S)-N-[4-(4-Acetyl-piperazin-1-yl)-benzyl]-N-(1-{methyl-[2-(3-trifluoromethoxy-benzyloxy)-ethyl]-carbamoyl}-2-phenyl-ethyl)-3-(4-trifluoromethyl-phenyl)-acrylamide, formic acid]: 58 nM. The same measure, in the same setting: under `COc1cccc(COCCN(C)C(=O)[C@H](Cc2ccccc2)N(Cc2ccc(N3CCN(C(C)=O)CC3)cc2)C(=O)C=Cc2ccc(C(F)(F)F)cc2)c1` [Example 187, (S)-N-[4-(4-Acetyl-piperazin-1-yl)-benzyl]-N-(1-{[2-(3-methoxy-benzyloxy)-ethyl]-methyl-carbamoyl}-2-phenyl-ethyl)-3-(4-trifluoromethyl-phenyl)-acrylamide, formic acid] stands 7 nM; under `CC(=O)N1CCN(c2ccc(CN(C(=O)C=Cc3ccc(C(F)(F)F)cc3)[C@@H](Cc3ccccc3)C(=O)N(C)CCOCc3ccc(OC(F)F)cc3)cc2)CC1` [Example 188, (S)-N-[4-(4-Acetyl-piperazin-1-yl)-benzyl]-N-(1-{[2-(4-difluoromethoxy-benzyloxy)-ethyl]-methyl-carbamoyl}-2-phenyl-ethyl)-3-(4-trifluoromethyl-phenyl)-acrylamide, formic acid], 53 nM.

As to `CC(=O)N1CCN(c2ccc(CN(C(=O)C=Cc3ccc(C(F)(F)F)cc3)[C@@H](Cc3ccccc3)C(=O)N(C)CCOCc3ccc4c(c3)nnn4C)cc2)CC1` [Example 189, (S)-N-[4-(4-Acetyl-piperazin-1-yl)-benzyl]-N-(1-{methyl-[2-(1-methyl-1H-benzotriazol-5-ylmethoxy)-ethyl]-carbamoyl}-2-phenyl-ethyl)-3-(4-trifluoromethyl-phenyl)-acrylamide, formic acid], the IC50 under setting [1] came out at 9 nM.

For the compound `CC(=O)N1CCN(c2ccc(CN(C(=O)C=Cc3ccc(C(F)(F)F)cc3)[C@@H](Cc3ccccc3)C(=O)N(C)CCOCc3cccnc3)cc2)CC1` [Example 190, (S)-N-[4-(4-Acetyl-piperazin-1-yl)-benzyl]-N-(1-{methyl-[2-(pyridin-3-ylmethoxy)-ethyl]-carbamoyl}-2-phenyl-ethyl)-3-(4-trifluoromethyl-phenyl)-acrylamide, formic acid], the half-inhibitory concentration (IC50) under setting [1] was 7 nM. Take `COc1cccc(COCCN(C)C(=O)[C@H](Cc2ccccc2)N(Cc2ccc(N3CCOCC3)cc2)C(=O)C=Cc2ccc(C(F)(F)F)cc2)c1` [Example 191, (S)-N-(1-{[2-(3-Methoxy-benzyloxy)-ethyl]-methyl-carbamoyl}-2-phenyl-ethyl)-N-(4-morpholin-4-yl-benzyl)-3-(4-trifluoromethyl-phenyl)-acrylamide, formic acid]: the IC50 under setting [1] came to 11 nM. Still for that read-out and setting: under `CCOCCN(C)C(=O)[C@H](Cc1ccccc1)N(Cc1ccc(N2CCOCC2)cc1)C(=O)C=Cc1ccc(C(F)(F)F)cc1` [Example 192, (S)-N-{1-[(2-Ethoxy-ethyl)-methyl-carbamoyl]-2-phenyl-ethyl}-N-(4-morpholin-4-yl-benzyl)-3-(4-trifluoromethyl-phenyl)-acrylamide] stands 19 nM; under `CCOCCN(C)C(=O)[C@H](Cc1ccccc1)N(Cc1ccc(N2CCN(C(C)=O)CC2)cc1)C(=O)C=Cc1ccc(C(F)(F)F)cc1` [Example 193, (S)-N-[4-(4-Acetyl-piperazin-1-yl)-benzyl]-N-{1-[(2-ethoxy-ethyl)-methyl-carbamoyl]-2-phenyl-ethyl}-3-(4-trifluoromethyl-phenyl)-acrylamide], 20 nM. As for `CC(=O)N1CCN(c2ccc(CN(C(=O)C=Cc3ccc(C(F)(F)F)cc3)[C@@H](Cc3ccccc3)C(=O)N(C)CCOCc3ccc(C)cc3C)cc2)CC1` [Example 194, (S)-N-[4-(4-Acetyl-piperazin-1-yl)-benzyl]-N-(1-{[2-(2,4-dimethyl-benzyloxy)-ethyl]-methyl-carbamoyl}-2-phenyl-ethyl)-3-(4-trifluoromethyl-phenyl)-acrylamide], the IC50 (P. falciparum strain K1) came to 89 nM. Turning to `Cc1ccc(COCCN(C)C(=O)[C@H](Cc2ccccc2)N(Cc2ccc(N3CCOCC3)cc2)C(=O)C=Cc2ccc(C(F)(F)F)cc2)c(C)c1` [Example 195, (S)-N-(1-{[2-(2,4-Dimethyl-benzyloxy)-ethyl]-methyl-carbamoyl}-2-phenyl-ethyl)-N-(4-morpholin-4-yl-benzyl)-3-(4-trifluoromethyl-phenyl)-acrylamide], the IC50 under setting [1] was determined as 81 nM. Still for that read-out and setting: next, `COc1ccc(COCCN(C)C(=O)[C@H](Cc2ccccc2)N(Cc2ccc(N3CCOCC3)cc2)C(=O)C=Cc2ccc(C(F)(F)F)cc2)cc1F` [Example 196, (S)-N-(1-{[2-(3-Fluoro-4-methoxy-benzyloxy)-ethyl]-methyl-carbamoyl}-2-phenyl-ethyl)-N-(4-morpholin-4-yl-benzyl)-3-(4-trifluoromethyl-phenyl)-acrylamide]: 16 nM; `CN(CCOCc1cccc(C#N)c1)C(=O)[C@H](Cc1ccccc1)N(Cc1ccc(N2CCOCC2)cc1)C(=O)C=Cc1ccc(C(F)(F)F)cc1` [Example 197, (S)-N-(1-{[2-(3-Cyano-benzyloxy)-ethyl]-methyl-carbamoyl}-2-phenyl-ethyl)-N-(4-morpholin-4-yl-benzyl)-3-(4-trifluoromethyl-phenyl)-acrylamide]: 29 nM. Still for that read-out and setting: next, `CN(CCOCc1cccc(OC(F)(F)F)c1)C(=O)[C@H](Cc1ccccc1)N(Cc1ccc(N2CCOCC2)cc1)C(=O)C=Cc1ccc(C(F)(F)F)cc1` [Example 198, (S)-N-(1-{Methyl-[2-(3-trifluoromethoxy-benzyloxy)-ethyl]-carbamoyl}-2-phenyl-ethyl)-N-(4-morpholin-4-yl-benzyl)-3-(4-trifluoromethyl-phenyl)-acrylamide]: 65 nM; `COc1cc(COCCN(C)C(=O)[C@H](Cc2ccccc2)N(Cc2ccc(N3CCOCC3)cc2)C(=O)C=Cc2ccc(C(F)(F)F)cc2)cc(OC)c1` [Example 199, (S)-N-(1-{[2-(3,5-Dimethoxy-benzyloxy)-ethyl]-methyl-carbamoyl}-2-phenyl-ethyl)-N-(4-morpholin-4-yl-benzyl)-3-(4-trifluoromethyl-phenyl)-acrylamide]: 34 nM; `CN(CCOCc1ccc(OC(F)F)cc1)C(=O)[C@H](Cc1ccccc1)N(Cc1ccc(N2CCOCC2)cc1)C(=O)C=Cc1ccc(C(F)(F)F)cc1` [Example 201, (S)-N-(1-{[2-(4-Difluoromethoxy-benzyloxy)-ethyl]-methyl-carbamoyl}-2-phenyl-ethyl)-N-(4-morpholin-4-yl-benzyl)-3-(4-trifluoromethyl-phenyl)-acrylamide]: 32 nM. Same read-out and setting: under `CN(CCOCc1ccc2c(c1)nnn2C)C(=O)[C@H](Cc1ccccc1)N(Cc1ccc(N2CCOCC2)cc1)C(=O)C=Cc1ccc(C(F)(F)F)cc1` [Example 202, (S)-N-(1-{Methyl-[2-(1-methyl-1H-benzotriazol-5-ylmethoxy)-ethyl]-carbamoyl}-2-phenyl-ethyl)-N-(4-morpholin-4-yl-benzyl)-3-(4-trifluoromethyl-phenyl)-acrylamide] stands 14 nM.

With `CN(CCOCc1cccnc1)C(=O)[C@H](Cc1ccccc1)N(Cc1ccc(N2CCOCC2)cc1)C(=O)C=Cc1ccc(C(F)(F)F)cc1` [Example 203, (S)-N-(1-{Methyl-[2-(pyridin-3-ylmethoxy)-ethyl]-carbamoyl}-2-phenyl-ethyl)-N-(4-morpholin-4-yl-benzyl)-3-(4-trifluoromethyl-phenyl)-acrylamide], under setting [1], the IC50 came out at 12 nM. On the same count and under the same terms, under `CC(=O)N1CCN(c2ccc(CN(C(=O)C=Cc3ccc(C(F)(F)F)cc3)[C@@H](Cc3ccccc3)C(=O)N(C)CCOCc3cc(C)on3)cc2)CC1` [Example 204, (S)-N-[4-(4-Acetyl-piperazin-1-yl)-benzyl]-N-(1-{methyl-[2-(5-methyl-isoxazol-3-ylmethoxy)-ethyl]-carbamoyl}-2-phenyl-ethyl)-3-(4-trifluoromethyl-phenyl)-acrylamide] stands 9 nM; under `CC(=O)N1CCN(c2ccc(CN(C(=O)C=Cc3ccc(C(F)(F)F)cc3)[C@@H](Cc3ccccc3)C(=O)N(C)CCOCc3ccncc3)cc2)CC1` [Example 205, (S)-N-[4-(4-Acetyl-piperazin-1-yl)-benzyl]-N-(1-{methyl-[2-(pyridin-4-ylmethoxy)-ethyl]-carbamoyl}-2-phenyl-ethyl)-3-(4-trifluoromethyl-phenyl)-acrylamide], 16 nM; under `CC(=O)N1CCN(c2ccc(CN(C(=O)C=Cc3ccc(C(F)(F)F)cc3)[C@@H](Cc3ccccc3)C(=O)N(C)CCOCc3ccc(C(F)(F)F)o3)cc2)CC1` [Example 206, (S)-N-[4-(4-Acetyl-piperazin-1-yl)-benzyl]-N-(1-{methyl-[2-(5-trifluoromethyl-furan-2-ylmethoxy)-ethyl]-carbamoyl}-2-phenyl-ethyl)-3-(4-trifluoromethyl-phenyl)-acrylamide], 81 nM.

The values above are taken from patent US20110224210A1, “NOVEL BIS-AMIDES AS ANTI-MALARIAL AGENTS” (priority 2008, published 2011).
